In patent publication US20230085307A1, “PYRIDAZINONE COMPOUND AND HERBICIDE” (NISSAN CHEMICAL CORPORATION, priority 2019, published 2023):

What was measured:
wild oat [1] = test: Test Example 5: herbicidal effect by foliage application, plastic box (Table 20, symbol I); type: in vivo, wild oat (Avena fatua); details: foliage application, 320 g/ha, evaluated three weeks after application
Procedure, shortened: (§1)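 Post-emergence foliar test in sterilized diluvial soil. Compound applied as water-diluted emulsion at a predetermined rate to 14-day-old plants; evaluation at three weeks.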

blackgrass [2] = test: Test Example 5: herbicidal effect by foliage application, plastic box (Table 20, symbol J); type: in vivo, blackgrass (Alopecurus myosuroides); details: foliage application, 320 g/ha, evaluated three weeks after application
Procedure, shortened: as §1

lambsquarters [3] = test: Test Example 4: herbicidal effect by soil treatment (Table 19, symbol O); type: in vivo, lambsquarters (Chenopodium album); details: amount of applied herbicide 320 g/ha
Procedure, shortened: (§2)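 Scoring uses the grading scale of an earlier test, three weeks post-application. Treatment consists of spraying a diluted emulsion formulation across the surface of sterilized diluvial soil in which seeds are buried near 1.5 cm deep; boxes are kept in a greenhouse between 25° C. and 30° C.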

late watergrass = test: Test Example 1: herbicidal activity, application before weed generation under submerged conditions (Table 16, symbol A); type: in vivo, late watergrass (Echinochloa oryzicola); details: 320 g/ha applied herbicide
Procedure, shortened: (§3)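 Alluvial soil was flooded to 4 cm depth, weed seeds were sown mixed and 2.5-leaf rice seedlings were transplanted. On sowing day, the compound's emulsion, diluted in water to a set dose, was applied to the water surface. Plants grew at 25–30 °C and were scored 0–5 after three weeks.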

Japanese bulrush = test: Test Example 1: herbicidal activity, application before weed generation under submerged conditions (Table 16, symbol B); type: in vivo, Japanese bulrush (Schoenoplectus juncoides); details: 320 g/ha applied herbicide
Procedure, shortened: as §3

Italian ryegrass [4] = test: Test Example 4: herbicidal effect by soil treatment (Table 19, symbol K); type: in vivo, Italian ryegrass (Lolium multiflorum); details: amount of applied herbicide 320 g/ha
Procedure, shortened: as §2

barnyard grass [5] = test: Test Example 4: herbicidal effect by soil treatment (Table 19, symbol H); type: in vivo, barnyard grass (Echinochloa crus-galli); details: amount of applied herbicide 320 g/ha
Procedure, shortened: as §2

Italian ryegrass [6] = test: Test Example 5: herbicidal effect by foliage application, plastic box (Table 20, symbol K); type: in vivo, Italian ryegrass (Lolium multiflorum); details: foliage application, 320 g/ha, evaluated three weeks after application
Procedure, shortened: as §1

redroot pigweed [7] = test: Test Example 4: herbicidal effect by soil treatment (Table 19, symbol N); type: in vivo, redroot pigweed (Amaranthus retroflexus); details: amount of applied herbicide 320 g/ha
Procedure, shortened: as §2

chickweed [8] = test: Test Example 5: herbicidal effect by foliage application, plastic box (Table 20, symbol P); type: in vivo, common chickweed (Stellaria media); details: foliage application, 320 g/ha, evaluated three weeks after application
Procedure, shortened: as §1

barnyard grass [9] = test: Test Example 5: herbicidal effect by foliage application, plastic box (Table 20, symbol H); type: in vivo, barnyard grass (Echinochloa crus-galli); details: foliage application, 320 g/ha, evaluated three weeks after application
Procedure, shortened: as §1

velvetleaf [10] = test: Test Example 4: herbicidal effect by soil treatment (Table 19, symbol M); type: in vivo, velvetleaf (Abutilon theophrasti); details: amount of applied herbicide 320 g/ha
Procedure, shortened: as §2

barnyard grass [11] = test: Test Example 3: herbicidal effect by foliage application, Wagner pot (Table 18, symbol H); type: in vivo, barnyard grass (Echinochloa crus-galli); details: amount of applied herbicide 320 g/ha
Procedure, shortened: (§4)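 Plants were sown in alluvial soil held under 0.1–0.5 cm standing water and grown 14 days in a greenhouse at 25–30 °C. An emulsifiable formulation, water-diluted to the set dose, was then sprayed onto the foliage, and effects were scored three weeks later using previously defined criteria.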

green foxtail [12] = test: Test Example 5: herbicidal effect by foliage application, plastic box (Table 20, symbol G); type: in vivo, green foxtail (Setaria viridis); details: foliage application, 320 g/ha, evaluated three weeks after application
Procedure, shortened: as §1

lambsquarters [13] = test: Test Example 5: herbicidal effect by foliage application, plastic box (Table 20, symbol O); type: in vivo, lambsquarters (Chenopodium album); details: foliage application, 320 g/ha, evaluated three weeks after application
Procedure, shortened: as §1

blackgrass [14] = test: Test Example 4: herbicidal effect by soil treatment (Table 19, symbol J); type: in vivo, blackgrass (Alopecurus myosuroides); details: amount of applied herbicide 320 g/ha
Procedure, shortened: as §2

windgrass [15] = test: Test Example 5: herbicidal effect by foliage application, plastic box (Table 20, symbol L); type: in vivo, windgrass (Apera spica-venti); details: foliage application, 320 g/ha, evaluated three weeks after application
Procedure, shortened: as §1

wild oat [16] = test: Test Example 4: herbicidal effect by soil treatment (Table 19, symbol I); type: in vivo, wild oat (Avena fatua); details: amount of applied herbicide 320 g/ha
Procedure, shortened: as §2

green foxtail [17] = test: Test Example 4: herbicidal effect by soil treatment (Table 19, symbol G); type: in vivo, green foxtail (Setaria viridis); details: amount of applied herbicide 320 g/ha
Procedure, shortened: as §2

persian speedwell [18] = test: Test Example 4: herbicidal effect by soil treatment (Table 19, symbol R); type: in vivo, Persian speedwell (Veronica persica); details: amount of applied herbicide 320 g/ha
Procedure, shortened: as §2

oval-leafed pondweed = test: Test Example 1: herbicidal activity, application before weed generation under submerged conditions (Table 16, symbol C); type: in vivo, oval-leafed pondweed (Monochoria vaginalis); details: 320 g/ha applied herbicide
Procedure, shortened: as §3

persian speedwell [19] = test: Test Example 5: herbicidal effect by foliage application, plastic box (Table 20, symbol R); type: in vivo, Persian speedwell (Veronica persica); details: foliage application, 320 g/ha, evaluated three weeks after application
Procedure, shortened: as §1

southern crabgrass [20] = test: Test Example 4: herbicidal effect by soil treatment (Table 19, symbol F); type: in vivo, southern crabgrass (Digitaria ciliaris); details: amount of applied herbicide 320 g/ha
Procedure, shortened: as §2

rice flat sedge = test: Test Example 3: herbicidal effect by foliage application, Wagner pot (Table 18, symbol E); type: in vivo, rice flat sedge (Cyperus iria); details: amount of applied herbicide 320 g/ha
Procedure, shortened: as §4

chickweed [21] = test: Test Example 4: herbicidal effect by soil treatment (Table 19, symbol P); type: in vivo, common chickweed (Stellaria media); details: amount of applied herbicide 320 g/ha
Procedure, shortened: as §2

redroot pigweed [22] = test: Test Example 5: herbicidal effect by foliage application, plastic box (Table 20, symbol N); type: in vivo, redroot pigweed (Amaranthus retroflexus); details: foliage application, 320 g/ha, evaluated three weeks after application
Procedure, shortened: as §1

velvetleaf [23] = test: Test Example 5: herbicidal effect by foliage application, plastic box (Table 20, symbol M); type: in vivo, velvetleaf (Abutilon theophrasti); details: foliage application, 320 g/ha, evaluated three weeks after application
Procedure, shortened: as §1

windgrass [24] = test: Test Example 4: herbicidal effect by soil treatment (Table 19, symbol L); type: in vivo, windgrass (Apera spica-venti); details: amount of applied herbicide 320 g/ha
Procedure, shortened: as §2

southern crabgrass [25] = test: Test Example 5: herbicidal effect by foliage application, plastic box (Table 20, symbol F); type: in vivo, southern crabgrass (Digitaria ciliaris); details: foliage application, 320 g/ha, evaluated three weeks after application
Procedure, shortened: as §1

Chinese sprangletop = test: Test Example 3: herbicidal effect by foliage application, Wagner pot (Table 18, symbol D); type: in vivo, chinese sprangletop (Leptochloa chinensis); details: amount of applied herbicide 320 g/ha
Procedure, shortened: as §4

Row | SMILES | herbicidal effect on I: wild oat (criteria 0-5) (wild oat [1]) | herbicidal effect on J: blackgrass (criteria 0-5) (blackgrass [2]) | O: lambsquarters, herbicidal effect rating (lambsquarters [3]) | Herbicidal effect on A: late watergrass (grade 0-5) (late watergrass) | Herbicidal effect on B: Japanese bulrush (grade 0-5) (Japanese bulrush) | K: Italian ryegrass, herbicidal effect rating (Italian ryegrass [4]) | H: barnyard grass, herbicidal effect rating (barnyard grass [5]) | herbicidal effect on K: Italian ryegrass (criteria 0-5) (Italian ryegrass [6]) | N: redroot pigweed, herbicidal effect rating (redroot pigweed [7]) | herbicidal effect on P: chickweed (criteria 0-5) (chickweed [8]) | herbicidal effect on H: barnyard grass (criteria 0-5) (barnyard grass [9]) | M: velvetleaf, herbicidal effect rating (velvetleaf [10]) | herbicidal effect on H: barnyard grass (barnyard grass [11]) | herbicidal effect on G: green foxtail (criteria 0-5) (green foxtail [12]) | herbicidal effect on O: lambsquarters (criteria 0-5) (lambsquarters [13]) | J: blackgrass, herbicidal effect rating (blackgrass [14]) | herbicidal effect on L: windgrass (criteria 0-5) (windgrass [15]) | I: wild oat, herbicidal effect rating (wild oat [16]) | G: green foxtail, herbicidal effect rating (green foxtail [17]) | R: persian speedwell, herbicidal effect rating (persian speedwell [18]) | other results
1 | COc1ccccc1-c1sc2ccc(C#C[Si](C)(C)C)cc2c1-c1c(O)c(C)nn(C)c1=O [2-188] | 0 (Herbicidal rate of 5% or less (almost no effect)) | 4 (Herbicidal rate of 70% or more and less than 90%) | 3 (Herbicidal rate of 40% or more and less than 70%) | 4 (Herbicidal rate of 70% or more and less than 90%) | 0 (Herbicidal rate of 5% or less (almost no effect)) | 0 (Herbicidal rate of 5% or less (almost no effect)) | 0 (Herbicidal rate of 5% or less (almost no effect)) | 4 (Herbicidal rate of 70% or more and less than 90%) | 5 (Herbicidal rate of 90% or more (almost completely withered)) | 5 (Herbicidal rate of 90% or more (almost completely withered)) | 1 (Herbicidal rate of 5% or more and less than 20%) | 0 (Herbicidal rate of 5% or less (almost no effect)) | 4 (Herbicidal rate of 70% or more and less than 90%) | 0 (Herbicidal rate of 5% or less (almost no effect)) | 2 (Herbicidal rate of 20% or more and less than 40%) | 0 (Herbicidal rate of 5% or less (almost no effect)) | 4 (Herbicidal rate of 70% or more and less than 90%) | 0 (Herbicidal rate of 5% or less (almost no effect)) | 0 (Herbicidal rate of 5% or less (almost no effect)) | 0 (Herbicidal rate of 5% or less (almost no effect)) | Herbicidal effect on C: oval-leafed pondweed (grade 0-5) (oval-leafed pondweed): 0 (Herbicidal rate of 5% or less (almost no effect)); herbicidal effect on R: persian speedwell (criteria 0-5) (persian speedwell [19]): 1 (Herbicidal rate of 5% or more and less than 20%); F: southern crabgrass, herbicidal effect rating (southern crabgrass [20]): 0 (Herbicidal rate of 5% or less (almost no effect)); herbicidal effect on E: rice flat sedge (rice flat sedge): 0 (Herbicidal rate of 5% or less (almost no effect)); P: chickweed, herbicidal effect rating (chickweed [21]): 0 (Herbicidal rate of 5% or less (almost no effect)); herbicidal effect on N: redroot pigweed (criteria 0-5) (redroot pigweed [22]): 3 (Herbicidal rate of 40% or more and less than 70%); herbicidal effect on M: velvetleaf (criteria 0-5) (velvetleaf [23]): 0 (Herbicidal rate of 5% or less (almost no effect)); L: windgrass, herbicidal effect rating (windgrass [24]): 0 (Herbicidal rate of 5% or less (almost no effect)); herbicidal effect on F: southern crabgrass (criteria 0-5) (southern crabgrass [25]): 3 (Herbicidal rate of 40% or more and less than 70%); herbicidal effect on D: Chinese sprangletop (Chinese sprangletop): 3 (Herbicidal rate of 40% or more and less than 70%)
2 | COc1ccccc1-c1sc2ccc(C#N)cc2c1-c1c(O)c(C)nn(C)c1=O [2-190] | 0 (Herbicidal rate of 5% or less (almost no effect)) | 0 (Herbicidal rate of 5% or less (almost no effect)) | 5 (Herbicidal rate of 90% or more (almost completely withered)) | 3 (Herbicidal rate of 40% or more and less than 70%) | 0 (Herbicidal rate of 5% or less (almost no effect)) | 0 (Herbicidal rate of 5% or less (almost no effect)) | 0 (Herbicidal rate of 5% or less (almost no effect)) | 0 (Herbicidal rate of 5% or less (almost no effect)) | 3 (Herbicidal rate of 40% or more and less than 70%) | 5 (Herbicidal rate of 90% or more (almost completely withered)) | 0 (Herbicidal rate of 5% or less (almost no effect)) | 0 (Herbicidal rate of 5% or less (almost no effect)) | 2 (Herbicidal rate of 20% or more and less than 40%) | 0 (Herbicidal rate of 5% or less (almost no effect)) | 2 (Herbicidal rate of 20% or more and less than 40%) | 0 (Herbicidal rate of 5% or less (almost no effect)) | 0 (Herbicidal rate of 5% or less (almost no effect)) | 0 (Herbicidal rate of 5% or less (almost no effect)) | 0 (Herbicidal rate of 5% or less (almost no effect)) | 0 (Herbicidal rate of 5% or less (almost no effect)) | Herbicidal effect on C: oval-leafed pondweed (grade 0-5) (oval-leafed pondweed): 0 (Herbicidal rate of 5% or less (almost no effect)); herbicidal effect on R: persian speedwell (criteria 0-5) (persian speedwell [19]): 5 (Herbicidal rate of 90% or more (almost completely withered)); F: southern crabgrass, herbicidal effect rating (southern crabgrass [20]): 0 (Herbicidal rate of 5% or less (almost no effect)); herbicidal effect on E: rice flat sedge (rice flat sedge): 4 (Herbicidal rate of 70% or more and less than 90%); P: chickweed, herbicidal effect rating (chickweed [21]): 0 (Herbicidal rate of 5% or less (almost no effect)); herbicidal effect on N: redroot pigweed (criteria 0-5) (redroot pigweed [22]): 3 (Herbicidal rate of 40% or more and less than 70%); herbicidal effect on M: velvetleaf (criteria 0-5) (velvetleaf [23]): 3 (Herbicidal rate of 40% or more and less than 70%); L: windgrass, herbicidal effect rating (windgrass [24]): 0 (Herbicidal rate of 5% or less (almost no effect)); herbicidal effect on F: southern crabgrass (criteria 0-5) (southern crabgrass [25]): 0 (Herbicidal rate of 5% or less (almost no effect)); herbicidal effect on D: Chinese sprangletop (Chinese sprangletop): 2 (Herbicidal rate of 20% or more and less than 40%)
